We go through five compounds from patent US6403343B2, “Method of producing a taxane-type diterpene and a method of obtaining cultured cells which produce the taxane-type dilterpene at a high rate” (Mitsui Chemicals, Inc., priority 1993, dated 2002).

For assay [1], the system named is cultured cells of Taxus baccata LINN. In words: Taxane-type diterpene yield and cell yield, shake culture of Taxus baccata cells with a jasmonic acid (or jasmone) added. As to conditions: for taxol inducing activity: see Comparative Example No. 24. The format is cell-based.
Assay [2] has the same test system. In words: Growth rate and taxane yield, 21-day shake culture of Taxus baccata cells with heavy metal compound, amine, antiethylene agent or Ethrel added. The format is cell-based. To be noted: 21 days.
The mark [3] stands for this setting: 0.01 μM added on 14th day, 7 more days.
Where [4] appears, read: 0.1 μM added on 14th day, 7 more days.
[5] abbreviates: 1 μM added on 14th day, 7 more days.
[6] abbreviates: 10 μM added on 14th day, 7 more days.
Setting [7] is: 50 μM added on 14th day, 7 more days.
[8] abbreviates: 100 μM added on 14th day, 7 more days.
Setting [9] is: 250 μM added on 14th day, 7 more days.
[10] abbreviates: 500 μM added on 14th day, 7 more days.
Setting [11] is: 1000 μM added on 14th day, 7 more days.

As to `CCC=CCC1=C(C)CCC1=O` [Comparative Example 24], the cell yield was 12.2 g/L in assay [1] (jasmone 0.1 μM); 12.1 g/L in assay [1] (jasmone 1 μM); 11.3 g/L in assay [1] (jasmone 10 μM); 11.3 g/L in assay [1] (jasmone 100 μM); 10.9 g/L in assay [1] (jasmone 1000 μM). Also, the “yield of baccatin III” value in assay [1] (jasmone 0.1 μM, cell + medium) stood at 0.3 mg/L; in assay [1] (jasmone 1 μM, cell + medium) it was 0.4 mg/L; in assay [1] (jasmone 10 μM, cell + medium) it was 0.3 mg/L; in assay [1] (jasmone 100 μM, cell + medium), 0.3 mg/L; in assay [1] (jasmone 1000 μM, cell + medium), 0.2 mg/L. The yield of cephalomannine in assay [1] (jasmone 0.1 μM, cell + medium) stood at 1.2 mg/L; in assay [1] (jasmone 1 μM, cell + medium), 1.0 mg/L; in assay [1] (jasmone 10 μM, cell + medium) it was 0.8 mg/L; in assay [1] (jasmone 100 μM, cell + medium), 0.6 mg/L; in assay [1] (jasmone 1000 μM, cell + medium), 0.8 mg/L. Further, the yield of taxol in assay [1] (jasmone 0.1 μM, cell + medium) is 3.0 mg/L; in assay [1] (jasmone 1 μM, cell + medium) it was 3.2 mg/L; in assay [1] (jasmone 10 μM, cell + medium), 3.3 mg/L; in assay [1] (jasmone 100 μM, cell + medium) it was 3.2 mg/L; in assay [1] (jasmone 1000 μM, cell + medium), 2.5 mg/L.
As for `CC/C=C\CC1=C(C)CCC1=O` [jasmone, reference compound], the taxol inducing activity result in assay [1] is listed as “low”.
Consider `CC/C=C\C[C@H]1C(=O)CC[C@@H]1CC(=O)O` [jasmonic acid], for which the cell yield was determined as 12.2 g/L in assay [1] (setting [3]); 12.2 g/L in assay [1] (setting [4]); 11.6 g/L in assay [1] (setting [5]); 11.5 g/L in assay [1] (setting [6]); 11.4 g/L in assay [1] (setting [7]); 10.3 g/L in assay [1] (setting [8]). Besides, the cell yield in assay [1] (setting [9]) turned out to be 10.1 g/L; in assay [1] (setting [10]) it was 10.2 g/L; in assay [1] (setting [11]), 6.7 g/L. In addition, the “yield of baccatin III” value in assay [1] (setting [3]) turned out to be 0.3 mg/L; in assay [1] (setting [4]), 0.3 mg/L; in assay [1] (setting [5]), 0.3 mg/L; in assay [1] (setting [6]) it was 0.5 mg/L; in assay [1] (setting [7]) it was 2.5 mg/L; in assay [1] (setting [8]), 7.2 mg/L. The “yield of baccatin III” value in assay [1] (setting [9]) came out at 10.6 mg/L; in assay [1] (setting [10]) it was 12.0 mg/L; in assay [1] (setting [11]), 1.2 mg/L. The yield of cephalomannine in assay [1] (setting [3]) turned out to be 0.6 mg/L; in assay [1] (setting [4]), 0.6 mg/L; in assay [1] (setting [5]) it was 0.8 mg/L; in assay [1] (setting [6]), 2.6 mg/L; in assay [1] (setting [7]), 2.2 mg/L; in assay [1] (setting [8]) it was 3.0 mg/L. Further, the yield of cephalomannine worked out at 2.7 mg/L in assay [1] (setting [9]), 1.1 mg/L in assay [1] (setting [10]) and 0.5 mg/L in assay [1] (setting [11]). Further, the yield of taxol came out at 2.2 mg/L in assay [1] (setting [3]); 3.4 mg/L in assay [1] (setting [4]); 5.9 mg/L in assay [1] (setting [5]); 8.3 mg/L in assay [1] (setting [6]); 10.2 mg/L in assay [1] (setting [7]); 12.8 mg/L in assay [1] (setting [8]). The values for the yield of taxol in assay [1] (setting [9]), in assay [1] (setting [10]) and in assay [1] (setting [11]) were 14.7 mg/L, 11.1 mg/L and 1.2 mg/L, respectively.
For the compound `NCCCNCCCCNCCCN` [spermin], the growth rate worked out at 1.0 times in assay [2] (1 M added at start); 1.4 times in assay [2] (10^−1 M added at start); 2.1 times in assay [2] (10^−2 M added at start); 2.0 times in assay [2] (10^−3 M added at start); 2.3 times in assay [2] (10^−4 M added at start); 2.1 times in assay [2] (10^−5 M added at start). Also, the growth rate is listed as 2.4 times in assay [2] (10^−6 M added at start), 2.4 times in assay [2] (10^−7 M added at start), 2.3 times in assay [2] (10^−8 M added at start) and 2.9 times in assay [2] (10^−9 M added at start). Moreover, the “total yield of taxane” value was found to be 0.22 mg/L in assay [2] (1 M added at start); 1.29 mg/L in assay [2] (10^−1 M added at start); 3.30 mg/L in assay [2] (10^−2 M added at start); 8.22 mg/L in assay [2] (10^−3 M added at start); 11.96 mg/L in assay [2] (10^−4 M added at start); 17.18 mg/L in assay [2] (10^−5 M added at start). The “total yield of taxane” value in assay [2] (10^−6 M added at start) was determined as 6.89 mg/L; in assay [2] (10^−7 M added at start) it was 4.17 mg/L; in assay [2] (10^−8 M added at start) it was 3.42 mg/L; in assay [2] (10^−9 M added at start), 1.86 mg/L. Besides, the “yield of baccatin III” value in assay [2] (1 M added at start) came out at 0.10 mg/L; in assay [2] (10^−1 M added at start), 0.39 mg/L; in assay [2] (10^−2 M added at start), 0.70 mg/L; in assay [2] (10^−3 M added at start), 0.76 mg/L; in assay [2] (10^−4 M added at start), 1.64 mg/L; in assay [2] (10^−5 M added at start) it was 2.09 mg/L. The “yield of baccatin III” value in assay [2] (10^−6 M added at start) came to 0.89 mg/L; in assay [2] (10^−7 M added at start), 0.68 mg/L; in assay [2] (10^−8 M added at start), 0.62 mg/L; in assay [2] (10^−9 M added at start) it was 0.50 mg/L. In addition, the yield of cephalomannine in assay [2] (1 M added at start) turned out to be 0.04 mg/L; in assay [2] (10^−1 M added at start) it was 0.32 mg/L; in assay [2] (10^−2 M added at start) it was 1.54 mg/L; in assay [2] (10^−3 M added at start) it was 2.68 mg/L; in assay [2] (10^−4 M added at start) it was 4.09 mg/L; in assay [2] (10^−5 M added at start), 5.63 mg/L. The yield of cephalomannine in assay [2] (10^−6 M added at start) was determined as 1.97 mg/L; in assay [2] (10^−7 M added at start) it was 1.32 mg/L; in assay [2] (10^−8 M added at start) it was 1.01 mg/L; in assay [2] (10^−9 M added at start), 0.64 mg/L. For the same compound, the yield of taxol in assay [2] (1 M added at start) turned out to be 0.08 mg/L; in assay [2] (10^−1 M added at start), 0.58 mg/L; in assay [2] (10^−2 M added at start), 1.06 mg/L; in assay [2] (10^−3 M added at start), 4.78 mg/L; in assay [2] (10^−4 M added at start) it was 6.23 mg/L; in assay [2] (10^−5 M added at start), 9.46 mg/L. In addition, the yield of taxol is 4.03 mg/L in assay [2] (10^−6 M added at start), 2.17 mg/L in assay [2] (10^−7 M added at start), 1.79 mg/L in assay [2] (10^−8 M added at start) and 0.72 mg/L in assay [2] (10^−9 M added at start).
methyl jasmone [reference compound]: the taxol inducing activity result in assay [1] was “low”.
